ChEMBL document CHEMBL1156106 (J Med Chem, 2009)

Experiments:
Rattus norvegicus [1] = test: Effect on behavioural activity in rat assessed as cocaine-induced lever response at 80 mg/kg, po pretreated with cocaine for 180 mins by drug-discrimination studies; assay type: functional
Rattus norvegicus [2] = test: Effect on behavioural activity in rat assessed as cocaine-induced lever response at 2.5 mg/kg, po pretreated with cocaine for 180 mins by drug-discrimination studies; assay type: functional
Rattus norvegicus [3] = test: Effect on behavioural activity in po dosed rat assessed as cocaine-induced lever response pretreated with cocaine by drug-discrimination studies; assay type: functional
Rattus norvegicus [4] = test: Effect on behavioural activity in rat assessed as cocaine-induced lever response at 2.5 mg/kg, po pretreated with cocaine for 90 mins by drug-discrimination studies; assay type: functional
Rattus norvegicus [5] = test: Effect on behavioural activity in rat assessed as cocaine-induced lever response at 10 mg/kg, po pretreated with cocaine for 360 mins by drug-discrimination studies; assay type: functional
Rattus norvegicus [6] = test: Effect on behavioural activity in rat assessed as cocaine-induced lever response at 20 mg/kg, po pretreated with cocaine for 45 mins by drug-discrimination studies; assay type: functional
Rattus norvegicus [7] = test: Effect on behavioural activity in rat assessed as cocaine-induced lever response at 40 mg/kg, po pretreated with cocaine for 45 mins by drug-discrimination studies; assay type: functional
Rattus norvegicus [8] = test: Effect on behavioural activity in rat assessed as cocaine-induced lever response at 20 mg/kg, po pretreated with cocaine for 180 mins by drug-discrimination studies; assay type: functional
Rattus norvegicus [9] = test: Effect on behavioural activity in rat assessed as cocaine-induced lever response at 5 mg/kg, po pretreated with cocaine for 45 mins by drug-discrimination studies; assay type: functional
Rattus norvegicus [10] = test: Effect on behavioural activity in rat assessed as cocaine-induced lever response at 2.5 mg/kg, po pretreated with cocaine for 360 mins by drug-discrimination studies; assay type: functional
Rattus norvegicus [11] = test: Effect on behavioural activity in rat assessed as cocaine-induced lever response at 40 mg/kg, po pretreated with cocaine for 90 mins by drug-discrimination studies; assay type: functional
[12] = biological target: T1, Sodium-dependent serotonin transporter (Homo sapiens, UniProt P31645); test: biochemical; assay type: cell-based, HEK293
T1 sequence (P31645 whole entry): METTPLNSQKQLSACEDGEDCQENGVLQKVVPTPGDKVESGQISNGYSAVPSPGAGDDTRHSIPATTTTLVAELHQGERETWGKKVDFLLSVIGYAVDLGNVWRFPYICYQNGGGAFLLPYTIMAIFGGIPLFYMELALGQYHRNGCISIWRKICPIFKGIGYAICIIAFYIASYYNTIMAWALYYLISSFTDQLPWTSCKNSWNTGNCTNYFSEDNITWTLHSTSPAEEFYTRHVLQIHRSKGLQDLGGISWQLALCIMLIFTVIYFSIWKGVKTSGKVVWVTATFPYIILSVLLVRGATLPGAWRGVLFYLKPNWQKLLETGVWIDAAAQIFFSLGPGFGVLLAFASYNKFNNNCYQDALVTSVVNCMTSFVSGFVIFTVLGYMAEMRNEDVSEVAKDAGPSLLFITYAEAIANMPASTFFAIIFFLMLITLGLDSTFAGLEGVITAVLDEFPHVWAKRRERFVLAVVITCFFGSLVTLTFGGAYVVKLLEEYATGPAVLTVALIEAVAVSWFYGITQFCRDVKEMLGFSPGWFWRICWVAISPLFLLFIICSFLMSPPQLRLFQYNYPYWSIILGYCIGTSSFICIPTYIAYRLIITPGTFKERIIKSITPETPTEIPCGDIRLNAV

Rattus norvegicus [13] = test: Effect on behavioural activity in ip dosed rat assessed as cocaine-induced lever response pretreated with cocaine by drug-discrimination studies; assay type: functional
Rattus norvegicus [14] = test: Effect on behavioural activity in rat assessed as cocaine-induced lever response at 5 mg/kg, po pretreated with cocaine for 360 mins by drug-discrimination studies; assay type: functional
Rattus norvegicus [15] = test: Effect on behavioural activity in rat assessed as cocaine-induced lever response at 25 mg/kg, ip pretreated with cocaine for 15 mins by drug-discrimination studies; assay type: functional; settings: route intraperitoneal
Mus musculus [16] = test: Antidepressant activity in ip dosed mouse assessed as duration of locomotor activity; assay type: functional
Mus musculus [17] = test: Antidepressant activity in ip dosed mouse assessed as time to reach peak stimulation of locomotor activity; assay type: functional
Rattus norvegicus [18] = test: Effect on behavioural activity in rat assessed as cocaine-induced lever response at 20 mg/kg, po pretreated with cocaine for 360 mins by drug-discrimination studies; assay type: functional
Rattus norvegicus [19] = test: Effect on behavioural activity in rat assessed as cocaine-induced lever response at 2.5 mg/kg, po pretreated with cocaine for 45 mins by drug-discrimination studies; assay type: functional
Rattus norvegicus [20] = test: Effect on behavioural activity in rat assessed as cocaine-induced lever response at 80 mg/kg, po pretreated with cocaine for 90 mins by drug-discrimination studies; assay type: functional
Mus musculus [21] = test: Antidepressant activity in ip dosed mouse assessed as stimulation of locomotor activity relative to cocaine; assay type: functional
Mus musculus [22] = test: Antidepressant activity in ip dosed mouse assessed as stimulation of locomotor activity; assay type: functional
Rattus norvegicus [23] = test: Effect on behavioural activity in rat assessed as cocaine-induced lever response at 10 mg/kg, po pretreated with cocaine for 90 mins by drug-discrimination studies; assay type: functional
Rattus norvegicus [24] = test: Effect on behavioural activity in rat assessed as cocaine-induced lever response at 20 mg/kg, po pretreated with cocaine for 90 mins by drug-discrimination studies; assay type: functional
Rattus norvegicus [25] = test: Effect on behavioural activity in rat assessed as cocaine-induced lever response at 80 mg/kg, po pretreated with cocaine for 45 mins by drug-discrimination studies; assay type: functional
Rattus norvegicus [26] = test: Effect on behavioural activity in rat assessed as cocaine-induced lever response at 5 mg/kg, po pretreated with cocaine for 90 mins by drug-discrimination studies; assay type: functional
Rattus norvegicus [27] = test: Effect on behavioural activity in rat assessed as cocaine-induced lever response at 2.5 mg/kg, ip pretreated with cocaine for 15 mins by drug-discrimination studies; assay type: functional; settings: route intraperitoneal
Rattus norvegicus [28] = test: Effect on behavioural activity in rat assessed as cocaine-induced lever response at 5 mg/kg, ip pretreated with cocaine for 15 mins by drug-discrimination studies; assay type: functional; settings: route intraperitoneal
Rattus norvegicus [29] = test: Effect on behavioural activity in rat assessed as cocaine-induced lever response at 10 mg/kg, ip pretreated with cocaine for 15 mins by drug-discrimination studies; assay type: functional; settings: route intraperitoneal
Rattus norvegicus [30] = test: Effect on behavioural activity in rat assessed as cocaine-induced lever response at 5 mg/kg, po pretreated with cocaine for 180 mins by drug-discrimination studies; assay type: functional
Rattus norvegicus [31] = test: Effect on behavioural activity in rat assessed as cocaine-induced lever response at 80 mg/kg, po pretreated with cocaine for 360 mins by drug-discrimination studies; assay type: functional
Rattus norvegicus [32] = test: Effect on behavioural activity in rat assessed as cocaine-induced lever response at 10 mg/kg, po pretreated with cocaine for 45 mins by drug-discrimination studies; assay type: functional
Rattus norvegicus [33] = test: Effect on behavioural activity in rat assessed as cocaine-induced lever response at 40 mg/kg, po pretreated with cocaine for 360 mins by drug-discrimination studies; assay type: functional
Rattus norvegicus [34] = test: Effect on behavioural activity in rat assessed as cocaine-induced lever response at 40 mg/kg, po pretreated with cocaine for 180 mins by drug-discrimination studies; assay type: functional
Rattus norvegicus [35] = test: Effect on behavioural activity in rat assessed as cocaine-induced lever response at 25 mg/kg, ip pretreated with cocaine for 75 mins by drug-discrimination studies; assay type: functional; settings: route intraperitoneal
Rattus norvegicus [36] = test: Effect on behavioural activity in rat assessed as cocaine-induced lever response at 25 mg/kg, po pretreated with cocaine for 90 mins by drug-discrimination studies; assay type: functional
Rattus norvegicus [37] = test: Effect on behavioural activity in rat assessed as cocaine-induced lever response at 50 mg/kg, po pretreated with cocaine for 90 mins by drug-discrimination studies; assay type: functional
Rattus norvegicus [38] = test: Effect on behavioural activity in rat assessed as cocaine-induced lever response at 100 mg/kg, ip pretreated with cocaine for 75 mins by drug-discrimination studies; assay type: functional; settings: route intraperitoneal
Rattus norvegicus [39] = test: Effect on behavioural activity in rat assessed as cocaine-induced lever response at 25 mg/kg, po pretreated with cocaine for 180 mins by drug-discrimination studies; assay type: functional
Rattus norvegicus [40] = test: Effect on behavioural activity in rat assessed as cocaine-induced lever response at 50 mg/kg, po pretreated with cocaine for 360 mins by drug-discrimination studies; assay type: functional
Rattus norvegicus [41] = test: Effect on behavioural activity in rat assessed as cocaine-induced lever response at 50 mg/kg, po pretreated with cocaine for 180 mins by drug-discrimination studies; assay type: functional
Rattus norvegicus [42] = test: Effect on behavioural activity in rat assessed as cocaine-induced lever response at 50 mg/kg, po pretreated with cocaine for 45 mins by drug-discrimination studies; assay type: functional
Rattus norvegicus [43] = test: Effect on behavioural activity in rat assessed as cocaine-induced lever response at 10 mg/kg, po pretreated with cocaine for 180 mins by drug-discrimination studies; assay type: functional
Rattus norvegicus [44] = test: Effect on behavioural activity in rat assessed as cocaine-induced lever response at 50 mg/kg, ip pretreated with cocaine for 75 mins by drug-discrimination studies; assay type: functional; settings: route intraperitoneal
Rattus norvegicus [45] = test: Effect on behavioural activity in rat assessed as cocaine-induced lever response at 10 mg/kg, ip pretreated with cocaine for 75 mins by drug-discrimination studies; assay type: functional; settings: route intraperitoneal
Rattus norvegicus [46] = test: Effect on behavioural activity in rat assessed as cocaine-induced lever response at 25 mg/kg, po pretreated with cocaine for 45 mins by drug-discrimination studies; assay type: functional
Rattus norvegicus [47] = test: Effect on behavioural activity in rat assessed as cocaine-induced lever response at 25 mg/kg, po pretreated with cocaine for 360 mins by drug-discrimination studies; assay type: functional
[48] = biological target: T2, Sodium-dependent noradrenaline transporter (Homo sapiens, UniProt P23975); test: Displacement of [125I]RTI55 from cloned human NET expressed in HEK293 cells; assay type: cell-based
T2 sequence (P23975 whole entry): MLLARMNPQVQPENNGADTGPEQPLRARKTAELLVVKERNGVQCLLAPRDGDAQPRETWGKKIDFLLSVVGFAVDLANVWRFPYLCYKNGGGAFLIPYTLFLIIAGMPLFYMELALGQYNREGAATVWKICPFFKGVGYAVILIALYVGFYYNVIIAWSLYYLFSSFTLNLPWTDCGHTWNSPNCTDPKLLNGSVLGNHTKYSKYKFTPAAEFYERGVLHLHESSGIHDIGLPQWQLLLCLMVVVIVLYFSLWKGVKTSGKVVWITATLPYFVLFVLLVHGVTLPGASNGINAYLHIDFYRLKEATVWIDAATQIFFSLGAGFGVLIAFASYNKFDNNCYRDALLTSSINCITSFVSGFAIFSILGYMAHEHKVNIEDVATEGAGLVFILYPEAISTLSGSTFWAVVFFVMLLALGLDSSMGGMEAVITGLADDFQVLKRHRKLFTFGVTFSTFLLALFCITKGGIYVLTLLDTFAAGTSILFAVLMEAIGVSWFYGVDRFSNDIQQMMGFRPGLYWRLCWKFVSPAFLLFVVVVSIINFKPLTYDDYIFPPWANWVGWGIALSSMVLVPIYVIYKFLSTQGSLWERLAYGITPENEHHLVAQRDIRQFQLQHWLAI

Rattus norvegicus [49] = test: Toxicity in rat assessed as adverse effects at 50 mg/kg, ip; assay type: organism-based; set-up: dose 50 mg/kg, route intraperitoneal; settings: in vivo
[50] = biological target: T3, Sodium-dependent dopamine transporter (Homo sapiens, UniProt Q01959); test: Displacement of [125I]RTI55 from cloned human DAT expressed in HEK293 cells; assay type: cell-based
T3 sequence (Q01959 whole entry): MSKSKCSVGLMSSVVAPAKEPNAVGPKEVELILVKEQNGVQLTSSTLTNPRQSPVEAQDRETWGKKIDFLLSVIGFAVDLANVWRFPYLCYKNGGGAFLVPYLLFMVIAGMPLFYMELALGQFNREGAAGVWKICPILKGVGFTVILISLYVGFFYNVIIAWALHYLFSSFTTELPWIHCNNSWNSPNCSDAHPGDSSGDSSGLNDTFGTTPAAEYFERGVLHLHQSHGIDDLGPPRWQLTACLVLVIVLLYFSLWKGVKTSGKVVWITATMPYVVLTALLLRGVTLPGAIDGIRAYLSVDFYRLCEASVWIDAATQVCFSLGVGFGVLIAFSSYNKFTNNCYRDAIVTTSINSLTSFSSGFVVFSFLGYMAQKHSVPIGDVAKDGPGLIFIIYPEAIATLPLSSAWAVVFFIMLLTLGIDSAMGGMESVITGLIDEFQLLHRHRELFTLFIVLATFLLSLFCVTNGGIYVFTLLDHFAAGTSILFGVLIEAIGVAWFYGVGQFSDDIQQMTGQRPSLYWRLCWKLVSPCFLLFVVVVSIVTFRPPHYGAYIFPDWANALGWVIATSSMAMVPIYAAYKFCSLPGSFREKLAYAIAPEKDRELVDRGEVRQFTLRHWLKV

Rattus norvegicus [51] = test: Effect on behavioural activity in rat assessed as cocaine-induced lever response at 25 mg/kg, ip pretreated with cocaine for 60 mins by drug-discrimination studies; assay type: functional; settings: route intraperitoneal
Rattus norvegicus [52] = test: Effect on behavioural activity in rat assessed as cocaine-induced lever response at 10 mg/kg, ip pretreated with cocaine for 60 mins by drug-discrimination studies; assay type: functional; settings: route intraperitoneal
Rattus norvegicus [53] = test: Effect on behavioural activity in rat assessed as cocaine-induced lever response at 5 mg/kg, ip pretreated with cocaine for 60 mins by drug-discrimination studies; assay type: functional; settings: route intraperitoneal
[54] = biological target: T1, Sodium-dependent serotonin transporter; test: Inhibition of [3H]serotonin reuptake at human SERT expressed in HEK293 cells; assay type: cell-based
[55] = biological target: T2, Sodium-dependent noradrenaline transporter; test: Inhibition of [3H]norepinephrine reuptake at human NET expressed in HEK293 cells; assay type: cell-based
[56] = biological target: T3, Sodium-dependent dopamine transporter; test: Inhibition of [3H]dopamine reuptake at human DAT expressed in HEK293 cells; assay type: cell-based

## CCCC(NC(C)(C)C)C(=O)c1cccc(Cl)c1 (centres undefined)
Rattus norvegicus [1]
  Activity: 50%
Rattus norvegicus [2]
  Activity: 0%
Rattus norvegicus [3]
  ED50: 23.2 mg/kg
Rattus norvegicus [4]
  Activity: 0%
Rattus norvegicus [5]
  Activity: 0%
Rattus norvegicus [6]
  Activity: 33%
Rattus norvegicus [7]
  Activity: 50%
Rattus norvegicus [8]
  Activity: 0%
Rattus norvegicus [9]
  Activity: 17%
Rattus norvegicus [10]
  Activity: 0%
Rattus norvegicus [11]
  Activity: 17%
[12]
  Ki: > 10 µM
Rattus norvegicus [13]
  ED50: 7.8 mg/kg
Rattus norvegicus [14]
  Activity: 0%
Rattus norvegicus [15]
  Activity: 83.3%
Mus musculus [16]
  Time: 210 min
Mus musculus [17]
  Time to peak locomotor stimulation: 90 min
Rattus norvegicus [18]
  Activity: 0%
Rattus norvegicus [19]
  Activity: 0%
Rattus norvegicus [20]
  Activity: 100%
Mus musculus [21]
  Activity: 108%
Mus musculus [22]
  ED50: 15.5 mg/kg
Rattus norvegicus [23]
  Activity: 0%
Rattus norvegicus [24]
  Activity: 33%
Rattus norvegicus [25]
  Activity: 100%
Rattus norvegicus [26]
  Activity: 0%
Rattus norvegicus [27]
  Activity: 0.2%
Rattus norvegicus [28]
  Activity: 17.2%
Rattus norvegicus [29]
  Activity: 33.3%
Rattus norvegicus [30]
  Activity: 22%
Rattus norvegicus [31]
  Activity: 1%
Rattus norvegicus [32]
  Activity: 33%
Rattus norvegicus [33]
  Activity: 16%
Rattus norvegicus [34]
  Activity: 17%

## CCCCCCC(NC(C)(C)C)C(=O)c1cccc(Cl)c1 (centres undefined)
Rattus norvegicus [3]
  ED50: 46.9 mg/kg
Rattus norvegicus [35]
  Activity: 48.5%
[12]
  Ki: > 10 µM
Rattus norvegicus [36]
  Activity: 0%
Rattus norvegicus [37]
  Activity: 17%
Rattus norvegicus [38]
  Activity: 67.2%
Mus musculus [16]
  Time: 130 min
Mus musculus [17]
  Time to peak locomotor stimulation: 110 min
Rattus norvegicus [39]
  Activity: 0%
Rattus norvegicus [40]
  Activity: 0%
Rattus norvegicus [41]
  Activity: 25%
Mus musculus [21]
  Activity: 94%
Mus musculus [22]
  ED50: 5.6 mg/kg
Rattus norvegicus [23]
  Activity: 0%
Rattus norvegicus [42]
  Activity: 83%
Rattus norvegicus [43]
  Activity: 0%
Rattus norvegicus [44]
  Activity: 49.9%
Rattus norvegicus [45]
  Activity: 0%
Rattus norvegicus [46]
  Activity: 0%
Rattus norvegicus [32]
  Activity: 0%
Rattus norvegicus [47]
  Activity: 0%

## CC(C)(C)NC(CCC1CCCCC1)C(=O)c1cccc(Cl)c1 (centres undefined)
[48]
  Ki: 3.8 µM
Rattus norvegicus [49]
  Activity: Toxic
[50]
  Ki: 1.7 µM
[12]
  Ki: 6.2 µM
Rattus norvegicus [51]
  Activity: 69.6%
Mus musculus [16]
  Time: 160 min
Rattus norvegicus [52]
  Activity: 0.7%
Mus musculus [17]
  Time to peak locomotor stimulation: 60 min
Mus musculus [21]
  Activity: 33%
Mus musculus [22]
  ED50: 14.1 mg/kg
Rattus norvegicus [53]
  Activity: 0.2%
[54]
  IC50: > 10 µM
[55]
  IC50: > 10 µM
[56]
  IC50: > 10 µM
